ChEMBL document CHEMBL1697781, “Assessment of the health effects of chemicals in humans: II. Construction of an adverse effects database for QSAR modeling” (Curr Drug Discov Technol, 2004)

Legend:
Settings in all cases: human; call rule not given here
Hepatotoxicity [1] = assay: FDA HLAED, serum glutamic oxaloacetic transaminase (SGOT) increase
Hepatotoxicity [2] = assay: FDA HLAED, liver enzyme composite activity
Hepatotoxicity [3] = assay: FDA HLAED, serum glutamic pyruvic transaminase (SGPT) increase
Hepatotoxicity [4] = assay: FDA HLAED, alkaline phosphatase increase
Hepatotoxicity [5] = assay: FDA HLAED, lactate dehydrogenase (LDH) increase
Hepatotoxicity [6] = assay: FDA HLAED, gamma-glutamyl transferase (GGT) increase
For GGT Increase - Index Value in this document: reference of the scale not given here.
For LDH Increase - Index Value in this document: reference of the scale not given here.

Structure (SMILES)	SGOT Increase - Activity Score (Hepatotoxicity [1])	SGOT Increase - Index Value (Hepatotoxicity [1])	SGOT Increase - Number of Reports (Hepatotoxicity [1])	Composite Activity - Active (Hepatotoxicity [2])	Composite Activity - Marginal (Hepatotoxicity [2])	Composite Activity - Score (Hepatotoxicity [2])	SGPT Increase - Activity Score (Hepatotoxicity [3])	SGPT Increase - Index Value (Hepatotoxicity [3])	SGPT Increase - Number of Reports (Hepatotoxicity [3])	Alkaline Phosphatase Increase - Activity Score (Hepatotoxicity [4])	Alkaline Phosphatase Increase - Index Value (Hepatotoxicity [4])	Alkaline Phosphatase Increase - Number of Reports (Hepatotoxicity [4])	LDH Increase - Activity Score (Hepatotoxicity [5])	LDH Increase - Index Value (Hepatotoxicity [5])	LDH Increase - Number of Reports (Hepatotoxicity [5])	GGT Increase - Activity Score (Hepatotoxicity [6])	GGT Increase - Index Value (Hepatotoxicity [6])	GGT Increase - Number of Reports (Hepatotoxicity [6])	also measured
CC[C@H]1OC(=O)[C@H](C)[C@@H](O[C@H]2C[C@@](C)(OC)[C@@H](O)[C@H](C)O2)[C@H](C)[C@@H](O[C@@H]2O[C@H](C)C[C@H](N(C)C)[C@H]2O)[C@](C)(OC)C[C@@H](C)C(=O)[C@H](C)[C@@H](O)[C@]1(C)O [CLARITHROMYCIN]	Marginally Active	3.8	>= 4	0	3	Inactive	Marginally Active	3.3	>= 4	Marginally Active	3.1	>= 4	Inactive	1.4	>= 4	Inactive	1.5	>= 4	
C[C@H]1C[C@H]2[C@@H]3CCC4=CC(=O)C=C[C@]4(C)[C@@]3(F)[C@@H](O)C[C@]2(C)[C@@]1(O)C(=O)CCl [CLOBETASOL]	Inactive	0	< 4	0	0	Inactive	Inactive	0	< 4	Inactive	0	< 4	Inactive	0	< 4	Inactive	0	< 4	
CC(C)/N=c1\cc2n(-c3ccc(Cl)cc3)c3ccccc3nc-2cc1Nc1ccc(Cl)cc1 [CLOFAZIMINE]	Active	76.9	< 4	4	0	Active	Active	102.6	>= 4	Active	76.9	< 4	Inactive	25.6	< 4	Active	51.3	< 4	
CN(C)CCCN1c2ccccc2CCc2ccc(Cl)cc21 [CLOMIPRAMINE]	Inactive	0	< 4	0	0	Inactive	Inactive	0	< 4	Inactive	0	< 4	Inactive	0	< 4	Inactive	0	< 4	
CN1CCN(C2=Nc3cc(Cl)ccc3Nc3ccccc32)CC1 [CLOZAPINE]	Active	45.1	>= 4	5	0	Active	Active	42.9	>= 4	Active	34.2	>= 4	Active	16.8	>= 4	Active	11.4	>= 4	
CC1(C)S[C@@H]2[C@H](NC(=O)C3(N)CCCCC3)C(=O)N2[C@H]1C(=O)O [CYCLACILLIN]	Inactive	0	< 4	0	0	Inactive	Inactive	0	< 4	Inactive	0	< 4	Inactive	0	< 4	Inactive	0	< 4	
Cc1ccccc1N1CCN(CCc2nnc3n2CCCC3)CC1 [DAPIPRAZOLE]	Inactive	0	< 4	0	0	Inactive	Inactive	0	< 4	Inactive	0	< 4	Inactive	0	< 4	Inactive	0	< 4	
COc1cccc2c1C(=O)c1c(O)c3c(c(O)c1C2=O)C[C@@](O)(C(C)=O)C[C@@H]3O[C@H]1C[C@H](N)[C@H](O)[C@H](C)O1 [DAUNORUBICIN]	Inactive	0	< 4	0	0	Inactive	Inactive	0	< 4	Inactive	0	< 4	Inactive	0	< 4	Inactive	0	< 4	
CCN[C@@H](C)Cc1cccc(C(F)(F)F)c1 [DEXFENFLURAMINE]	Inactive	1	>= 4	0	0	Inactive	Inactive	0.6	< 4	Inactive	0.2	< 4	Inactive	0.4	< 4	Inactive	0.6	< 4	
C[C@@H](CN1CC(=O)NC(=O)C1)N1CC(=O)NC(=O)C1 [DEXRAZOXANE]	Inactive	0	< 4	0	0	Inactive	Inactive	0	< 4	Inactive	0	< 4	Inactive	0	< 4	Inactive	0	< 4	
C[C@@]12CCCCC[C@@H](Cc3ccc(O)cc31)[C@@H]2N [DEZOCINE]	Inactive	0	< 4	0	0	Inactive	Inactive	0	< 4	Inactive	0	< 4	Inactive	0	< 4	Inactive	0	< 4	
O=C(O)Cc1ccccc1Nc1c(Cl)cccc1Cl [DICLOFENAC]	Active	11.4	>= 4				Active	11.1	>= 4	Active	9.2	>= 4	Inactive	2	>= 4	Marginally Active	3.8	>= 4	Composite Activity - Active (Hepatotoxicity [2]; Liver): 3; Composite Activity - Marginal (Hepatotoxicity [2]; Liver): 1; Composite Activity - Score (Hepatotoxicity [2]; Liver): Active
